How the values were obtained:
[1] = Carbonyl compound-trapping effect of biguanide agents in phosphate buffer (Example 1); details: 3 mM biguanide agent, 0.1 mM carbonyl compounds each, 0.1M phosphate buffer pH7.4, 37° C., over incubation period; HPLC
[2] = as above; details: 3 mM biguanide agent, 0.1 mM carbonyl compounds each, 0.1M phosphate buffer pH7.4, 37° C., over incubation period; HPLC; remark: listed apart in the source

| Compound | concentration of methylglyoxal [1] | concentration of glyoxal [2] |
| --- | --- | --- |
| CCCCNC(=N)NC(=N)N [buformin, butyl biguanide] | markedly decreased | markedly decreased |
| N=C(N)NC(=N)NCCc1ccccc1 [phenformin, phenethyl biguanide] | markedly decreased | markedly decreased |

From patent publication US7169407B1, “Carbonyl stress-decreasing agent” (Kiyoshi Kurokawa, priority 1999, dated 2007)
